Where two headings read alike, the source gives them in different places.
Legend:
[1] = Pharmacokinetic study in severe onychomycosis patients, once daily for 28 days; assay type: in vivo, human; conditions: for AUC(0-t): read-out: AUC24h; for Cmax: mean +/- SD
Description: Systemic absorption of efinaconazole in 18 […] patients with severe onychomycosis was determined after application of IDP-108 (10% efinaconazole) once daily for 28 days to patients' 10 toenails and adjacent skin. Specifically, two single-center, open-label studies in healthy volunteers and severe onychomycosis patients.
A separate single-center, open-label study to evaluate safety and PK of efinaconazole and its H3 metabolite in 20 patients with severe toenail onychomycosis also was conducted. The study enrolled men and women 18-70 years of age who had clinical diagnoses of stable or exacerbating severe DLSO affecting ≥80% of the area of both great toenails. The great toenails had evidence of toenail growth, and at least four toenails other than the great toenails were also affected by onychomycosis. A positive microscopic examination with potassium hydroxide (KOH) for the hyphae associated with dermatophytes was obtained for at least one great toenail at the screening visit.
Efinaconazole 10% solution (0.42 mL/subject) was applied topically, unoccluded, once daily in the morning for 28 days to all 10 toenails by a trained nurse or study technician, including to the toenail folds, toenail bed, hyponychium, and approximately 0.5 cm of skin around the toenail in all directions to ensure they were completely covered.
Blood samples were collected at predose and at 1, 2, 4, 6, 8, 10, 12, 16, and 24 hours postdose on days 1, 14, and 28. Blood was processed to plasma and stored frozen until analysis.
(§1) Plasma concentrations of efinaconazole and its major metabolite H3 were determined by LC-MS-MS at multiple timepoints. Plasma concentrations of efinaconazole and H3 were determined using a validated LC-MS-MS method. […] The concentration of efinaconazole in plasma was determined at multiple time points over the course of 24-hour periods on days 1, 14, and 28. Plasma concentrations below the lower limit were set to zero for PK analyses. Pharmacokinetic parameters were calculated from individual plasma concentrations, whenever possible, using noncompartmental analysis in WinNonlin (Pharsight, Sunnyvale, Calif., USA), and included Cmax (observed peak drug concentration), Tmax (time at which Cmax occurs), Cmin (observed minimum drug concentration), t1/2 (apparent half-life), and AUC (area under the concentration-time curve).

[2] = Pharmacokinetic study in healthy volunteers, topical application to all 10 toenails; assay type: in vivo, human; conditions: for Cmax: mean +/- SD; for AUC(0-t): read-out: AUC24h
Description: In […] patients, efinaconazole 10% solution (IDP-108) was applied topically to all 10 toenails (0.42 mL total daily dose volume) administered as single and then 7 daily doses to 10 healthy volunteers, and once daily for 28 days to 18 severe onychomycosis patients. The efinaconazole 10% solution (0.42 mL/subject) was applied topically in the morning, unoccluded (i.e., without occluding, blocking or covering the nail with, for example, adhesive tape, bandage, dressing, sealant, etc.), by a trained nurse or study technician to all 10 toenails as a single dose (day 1), and seven consecutive daily doses (day 4 through day 10). A volume of 90 μL was applied on each great toenail and 30 μL on each of the remaining 8 toenails. There were no study drug applications on days 2 and 3.
Blood samples were collected at pre-dose, and 1, 2, 4, 6, 8, 10, 12, 16, 24, 28, 32, 36, 48, and 72 hours after dosing on days 1 and 10; and at pre-dose on days 6 and 8. Blood was processed to plasma and stored frozen until analysis.
as §1

[3] = design: species or system rats; conditions: rat, in vivo, sc
[4] = tested on: CHL cell; assay type: cell-based
[5] = tested on: T. mentagrophytes, T. rubrum and C. albicans; experiment: Drug resistance development in vitro by serial passage of fungal cultures; assay type: cell-based; conditions: serial passage in the presence of sub-growth inhibitory concentrations
Description: Efinaconazole drug resistance development was studied in vitro against T. mentagrophytes, T. rubrum and C. albicans. […] The clinical significance of these in vitro results is unknown.

[6] = mouse, in vivo
[7] = tested on: bacterial; experiment: Bacterial reverse mutation assay; assay type: cell-based
[8] = target: CYP2C9 (Homo sapiens, UniProt P11712); experiment: biochemical; assay type: in vitro ADME
Description: The 2006 Food and Drug Administration Drug Interaction Studies—Study Design, Data Analysis, and Implications for Dosing and Labeling draft guidance recommends clinical evaluation for drugs that are CYP inhibitors if the mean steady state Cmax/Ki is greater than 0.1.

Chain of CYP2C9 (P11712 whole entry): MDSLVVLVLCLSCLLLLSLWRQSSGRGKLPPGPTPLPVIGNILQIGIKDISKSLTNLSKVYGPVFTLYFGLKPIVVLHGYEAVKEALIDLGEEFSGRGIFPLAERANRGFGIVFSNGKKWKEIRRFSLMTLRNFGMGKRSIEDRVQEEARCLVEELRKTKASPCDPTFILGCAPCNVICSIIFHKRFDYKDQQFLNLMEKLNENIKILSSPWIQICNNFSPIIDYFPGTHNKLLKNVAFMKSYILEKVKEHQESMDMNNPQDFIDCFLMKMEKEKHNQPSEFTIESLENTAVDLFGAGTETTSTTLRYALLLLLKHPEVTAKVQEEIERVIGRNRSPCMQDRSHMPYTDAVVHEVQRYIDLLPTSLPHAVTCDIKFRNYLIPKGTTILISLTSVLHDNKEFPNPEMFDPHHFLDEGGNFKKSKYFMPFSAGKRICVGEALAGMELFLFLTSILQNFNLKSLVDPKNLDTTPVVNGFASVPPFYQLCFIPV

## C=C1CCN([C@H](C)[C@](O)(Cn2cncn2)c2ccc(F)cc2F)CC1 [efinaconazole, (2R,3R)-2-(2,4-difluorophenyl)-3-(4-methylenepiperidin-1-yl)-1-(1H-1,2,4-triazol-1-yl) butan-2-ol]
[1]; both PK studies (healthy volunteers and onychomycosis patients)
  tolerability, drug-related adverse events: well tolerated
[1]; both sexes, human, plasma, topical, 0.42 mL/subject, onychomycosis patients, Day 1
  Tmax: 23.9 h
[1]; both sexes, human, plasma, topical, 0.42 mL/subject, onychomycosis patients, Day 1, mean +/- SD
  AUC(0-t): 1.79 ng·h/mL
[1]; both sexes, human, plasma, topical, 0.42 mL/subject, onychomycosis patients, Day 1, plasma
  Cmax: 0.23 ± 0.18 ng/mL
[1]; both sexes, human, plasma, topical, 0.42 mL/subject, onychomycosis patients, Day 14
  Tmax: 4.55 h
[1]; both sexes, human, plasma, topical, 0.42 mL/subject, onychomycosis patients, Day 14, mean +/- SD
  AUC(0-t): 10.9 ± 5.9 ng·h/mL
[1]; both sexes, human, plasma, topical, 0.42 mL/subject, onychomycosis patients, Day 14, plasma
  Cmax: 0.62 ± 0.23 ng/mL
[1]; both sexes, human, plasma, topical, 0.42 mL/subject, onychomycosis patients, Day 28
  Tmax: 16 h
[1]; both sexes, human, plasma, topical, 0.42 mL/subject, onychomycosis patients, Day 28, mean +/- SD
  AUC(0-t): 12.2 ng·h/mL
[1]; both sexes, human, plasma, topical, 0.42 mL/subject, onychomycosis patients, Day 28, plasma
  Cmax: 0.67 ng/mL
[1]; both sexes, human, plasma, topical, 0.42 mL/subject, onychomycosis patients, detected in several subjects, read-out: mean plasma concentrations two weeks after the last dose
  concentration at 2 weeks after the last dose: 0.07 ng/mL
[1]; onychomycosis patients, Day 14, mean +/- SD
  Cmin: 0.33 ± 0.17 ng/mL
[1]; onychomycosis patients, Day 28, mean +/- SD
  Cmin: 0.36 ± 0.20 ng/mL
[2]; fifth topical application, both toenails and back skin
  steady-state reached on Day: 8 days
[2]; healthy volunteers
  Systemic exposure (AUC24h) on day 10 relative to day 1: approximately 3.6 fold
[2]; healthy volunteers, Day 1 (single dose), plasma
  Cmax: 0.38 ± 0.39 ng/mL
[2]; healthy volunteers, Day 10 (7th daily dose), plasma
  Cmax: 0.54 ± 0.22 ng/mL
[2]; healthy volunteers, Day 10, mean +/- SD
  Cmin: 0.47 ± 0.18 ng/mL
[2]; healthy volunteers, stated after the day 10 range
  average plasma concentration: 0.37 ng/mL
[2]; human, plasma, topical, 0.42 mL/subject, healthy volunteers, Day 1 (single dose), plasma, read-out: Cmax
  Cmax: 0.382 ng/mL
[2]; human, plasma, topical, 0.42 mL/subject, healthy volunteers, Day 1, mean +/- SD
  AUC(0-t): 2.64 ± 2.85 ng·h/mL
[2]; human, plasma, topical, 0.42 mL/subject, healthy volunteers, Day 1, value [range]
  Tmax: 24 h
[2]; human, plasma, topical, 0.42 mL/subject, healthy volunteers, Day 10 (7th daily dose), plasma, read-out: Cmax
  Cmax: 0.542 ng/mL
[2]; human, plasma, topical, 0.42 mL/subject, healthy volunteers, Day 10, mean +/- SD
  AUC(0-t): 9.48 ± 3.86 ng·h/mL
[2]; human, plasma, topical, 0.42 mL/subject, healthy volunteers, Day 10, value [range]
  Tmax: 10 h
[2]; human, plasma, topical, 0.42 mL/subject, healthy volunteers, day 1, read-out: plasma concentration range
  concentration at 1 day: 0 to 1.11 ng/mL
[2]; human, plasma, topical, 0.42 mL/subject, healthy volunteers, day 10, read-out: plasma concentration range
  concentration at 10 day: 0.25 to 0.85 ng/mL
[3]; 5 mg/kg/day
  effect on estrous cycle in females: did not have effects
[3]; 25 mg/kg/day
  effect on estrous cycle in females: delayed the estrous cycle
[4]
  clastogenicity: not clastogenic
[5]
  increase of the MIC: up to 4 fold
[6]
  clastogenicity: not clastogenic
[7]
  mutagenicity: not mutagenic
[8]
  Ki: 261 nM
  steady state Cmax/Ki: 0.007

From patent publication US10245257B2, “Anti-infective methods, compositions, and devices” (Dow Pharmaceutical Sciences, Inc., priority 2013, dated 2019)
